Our source for the binary diffusion coefficient values is the NIST ThermoML archive (doi:10.1021/je060092t).

A short description of this series: cn = amount concentration of the nth substance listed, in mol/dm3. Conditions: Liquid, Taylor dispersion method.

Turning to `[Cl-].[K+]` [potassium chloride] + O, the binary diffusion coefficient (298.15 K, c1 = 0.1) amounted to 1.81e-09 m2/s.
Turning to `OC[C@H]1O[C@@](CO)(O[C@H]2O[C@H](CO)[C@@H](O)[C@H](O)[C@H]2O)[C@@H](O)[C@@H]1O` [D-sucrose] + O, the binary diffusion coefficient (298.15 K, c1 = 0.1) was 5.26e-10 m2/s.
With `OC[C@H]1O[C@@H]2O[C@H]3[C@H](O)[C@@H](O)[C@@H](O[C@H]4[C@H](O)[C@@H](O)[C@@H](O[C@H]5[C@H](O)[C@@H](O)[C@@H](O[C@H]6[C@H](O)[C@@H](O)[C@@H](O[C@H]7[C@H](O)[C@@H](O)[C@@H](O[C@H]8[C@H](O)[C@@H](O)[C@@H](O[C@H]1[C@H](O)[C@H]2O)O[C@@H]8CO)O[C@@H]7CO)O[C@@H]6CO)O[C@@H]5CO)O[C@@H]4CO)O[C@@H]3CO` [β-cyclodextrin] + O, the binary diffusion coefficient amounted to 3.24e-10 m2/s (298.15 K, c1 = 0.002); 3.23e-10 m2/s (298.15 K, c1 = 0.004); 3.21e-10 m2/s (298.15 K, c1 = 0.006); 3.18e-10 m2/s (298.15 K, c1 = 0.008); 3.89e-10 m2/s (303.15 K, c1 = 0.002); 3.88e-10 m2/s (303.15 K, c1 = 0.004). Further, the binary diffusion coefficient reads like this: (303.15 K, c1 = 0.006) 3.81e-10 m2/s; (303.15 K, c1 = 0.008) 3.78e-10 m2/s; (308.15 K, c1 = 0.002) 4.3e-10 m2/s; (308.15 K, c1 = 0.004) 4.28e-10 m2/s; (308.15 K, c1 = 0.006) 4.27e-10 m2/s; (308.15 K, c1 = 0.008) 4.23e-10 m2/s. In addition, the binary diffusion coefficient (312.15 K, c1 = 0.002) is 4.56e-10 m2/s; the binary diffusion coefficient (312.15 K, c1 = 0.004) turned out to be 4.54e-10 m2/s; the binary diffusion coefficient (312.15 K, c1 = 0.006) stood at 4.54e-10 m2/s; the binary diffusion coefficient (312.15 K, c1 = 0.008) came out at 4.53e-10 m2/s.
